Assay results: publication PMC9475553, “SHF Acts as a Novel Tumor Suppressor in Glioblastoma Multiforme by Disrupting STAT3 Dimerization” (Advanced Science, 2022)
No end group written: not given here.

Biological target: immobilized STAT3 (Homo sapiens, UniProt P40763)
Assay: Static adsorption equilibrium assay, immobilized STAT3
Assay type: binding
Details: immobilized STAT3 85 nmol g^−1 wet gel; peptide 2-20 µM in PBS, stirred 12 h; free peptide by NanoDrop absorbance 240 nm; Langmuir isotherm; mean ± SD; read-out: equilibrium dissociation constant KD
Description: Considering that the SH2 domain predominantly represents the inhibition of SHF on STAT3 dimerization and activity, we speculated that this domain may be an optional target for GBM suppression. To this end, we analyzed the mechanical interaction of SHF and STAT3. The structures of human SHF (aa265‐421) and STAT3 (aa130‐715). both of which spanned their respective SH2 domain. were simulated by Swiss‐Model server (https://swissmodel.expasy.org/). To simulate the interaction of SHF and STAT3, Discovery studio 2018 was employed to complete protein‐protein docking using ZDOCK as an initial stage. A rigid body molecular docking algorithm utilizing a fast Fourier transform (FFT) algorithm was used to further improve performance for searching in translational space. All the available structures from PDB were used to calculate the docking poses and the structures obtained were subjected to energy minimization filtration using the smart minimize algorithm (Max steps 200, RMS gradient 0.01). The highest resulting ZDock score was used as the appropriate conformational pose. […] Since these two spots are located closely to one another, the sequence spanning amino acids 388–421 was used as a peptide design master. To obtain a peptide with high internalization efficiency and a strong half‐life, we introduced a palmitic acid at the N‐terminus of the master sequence and amidated the C‐terminus. The designed peptide was named C16. A scrambled peptide containing a scrambled sequence targeting Spot1 was named SC and served as a negative control peptide. […] The static adsorption equilibrium experiment of immobilized STAT3 peptide was used to detect the binding rate of the synthesized peptide with STAT3 (Figure 7C). The concentration of immobilized STAT3 used was 85 nmol g^−1 wet gel. […] Thus, C16 acted as a powerful inhibitor of STAT3 dimerization and associated activity. Next, we determined the implication of C16 in tumor inhibition. […] A concentration of 25 uM was determined to be adequate for use in the subsequent experiments. […] Further, the impact of C16 on tumor propagation was examined in an intracranial xenograft model. U87 cells expressing luciferase were implanted into mouse brains. The mice were injected intraperitoneally (i.p.) with C16 or SC once every 2 days from the third day after cell transplantation. […] To investigate the effect of C16 on cell proliferation, EdU was injected 24 h prior to sacrifice.
Figure 7 Peptide derived from the STAT3‐binding sites of SHF is an effective GBM suppressive strategy. A) Binding model between SHF and STAT3 using ZDOCK server. […] B) IF staining determined the cell penetrability and nuclear‐localization of C16. U251 cells were incubated with C16 or SC for 2 h and performed IF staining using the indicated antibodies. Bars, 10 µm. C) The statical analysis of adsorption equilibrium assay detecting the binding of C16 and SC with recombinant STAT3. D) Pull‐down assay indicating C16 binds STAT3. GST‐STAT3 was incubated with C16 or SC for 2 h, and the pull‐down assay was performed using Anti‐His magnetic beads. E) IP assay showing the effect of C16 on STAT3 dimerization. 293T cells transfected with indicated vectors were incubated with C16 for 2 h. The relative quantification of STAT3 dimerization was listed. F) IP assay detecting the effect of C16 on the interaction of STAT3 and DNMT1. […] The relative quantification of STAT3/DNMT1 interaction was listed. […] The relative quantification of STAT3/DNMT1 interaction was listed. […]

immobilized STAT3, sequence (P40763 whole entry): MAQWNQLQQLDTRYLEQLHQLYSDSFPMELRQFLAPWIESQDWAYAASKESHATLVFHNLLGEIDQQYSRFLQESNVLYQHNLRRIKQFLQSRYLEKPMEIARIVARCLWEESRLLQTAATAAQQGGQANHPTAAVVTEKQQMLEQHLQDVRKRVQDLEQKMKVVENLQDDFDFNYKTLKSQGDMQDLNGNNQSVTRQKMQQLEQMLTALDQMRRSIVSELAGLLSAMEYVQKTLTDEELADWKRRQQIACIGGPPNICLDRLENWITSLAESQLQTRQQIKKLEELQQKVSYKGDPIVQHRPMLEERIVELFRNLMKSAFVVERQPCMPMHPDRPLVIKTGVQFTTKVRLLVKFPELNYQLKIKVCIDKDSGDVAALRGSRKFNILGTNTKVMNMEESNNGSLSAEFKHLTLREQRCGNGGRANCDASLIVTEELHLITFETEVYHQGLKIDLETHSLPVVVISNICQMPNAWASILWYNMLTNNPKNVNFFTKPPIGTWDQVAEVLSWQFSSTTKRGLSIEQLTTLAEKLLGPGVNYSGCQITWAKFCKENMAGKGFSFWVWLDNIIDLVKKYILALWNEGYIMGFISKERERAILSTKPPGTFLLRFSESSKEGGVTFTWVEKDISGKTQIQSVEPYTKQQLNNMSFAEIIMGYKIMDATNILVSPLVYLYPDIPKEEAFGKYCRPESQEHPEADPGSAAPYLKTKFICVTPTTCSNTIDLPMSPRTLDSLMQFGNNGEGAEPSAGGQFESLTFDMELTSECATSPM

Kd: 4.08 ± 0.63 µM
Sequence: PASSNCEIVPMYHIRKLPIKGAEHMSLLYPVAIR [SC, reference compound]
